Measurements from patent US20090247520A1, “INHIBITORS OF ANTIGEN RECEPTOR-INDUCED NF-kappa B ACTIVATION” (The Burnham Institute for Medical Research, priority 2008, published 2009).
Read-outs that look alike come from different tables or passages of the source.

What was measured:
[1] = tested on: PMA/Ionomycin-stimulated IL-8 production; assay: PMA/Ionomycin-stimulated IL-8 production by HEK293 reporter cells (ELISA); format: cell-based, human
Protocol: (§1) (A) Structures of two hit compounds, CID-2858522 (left) and CID-2998237 (right) are shown; (B, C) 293-NF-κB-luc cells were pretreated for 2 hrs with various concentration of either CID-2858522 (B) or CID-29982387 (C) and then stimulated with TNF (10 ng/mL) or PMA/lonomycin (10 ng/mL; 5 ng/mL) for 16 h. Luciferase activity was measured and data were expressed as a percentage relative to control treatment with DMSO only (mean±SD; n=3). (D) 293-NF-κB-luc cells were pretreated for 2 h with various concentrations of CID-2858522 or CID-2998237, then stimulated with PMA/lonomycin for 16 h. IL-8 release into the medium was measured, expressing data as a percentage relative to control cultures treated with DMSO (mean±SD; n=3). (E) 293-NF-κB-luc cells were pretreated with CID-2858522 and then stimulated with PDBu for 16 h, IL-8 production and NF-κB luciferase activity were measured as above. (F) 293-NF-κB-luc cells were pretreated for 2 h with various concentrations of CID-2858522 or a PKC inhibitor (Bisindolylmaleimide I) at 1 μM followed by PMA/Ionomycin (10 ng/mL) stimulation for 2 h, then p65-DNA-binding activity was measured in nuclear extracts (10 μg protein), expressing data as fold-increase relative to unstimulated cells (mean±SD; n=3).
Lymphokine measurements. Human IL-2 or IL-8 levels in culture medium were measured by Enzyme-Linked Immunosorbent Assays (ELISAs), using BD OptEIA ELISAs (BD Biosciences, San Diego, Calif.), according to the manufacturer's protocol, using 96-well ELISA plates (BD Biosciences) and measuring absorbance within 30 minutes of initiating reactions using a SpectraMax 190 spectrophotometer (Molecular Devices).

[2] = biological target: T1, purified luciferase (Photinus pyralis, UniProt P08659); assay: Luciferase inhibition counter screen, in vitro enzymatic assay; format: biochemical; conditions: not shown
T1 construct: purchased Perkin Elmer
Protocol: Counter Screening and Secondary Assays. To counter-screen for inhibitors of the TNF pathway, HEK293-NFκB-Luc cells were seeded at 10^5 cells per well in 90 μL medium in white 96-well plates (Greiner Bio-One) and cultured overnight, before adding compounds (5 μL in medium) to cells. After 2 h incubation, 5 μL TNF (200 ng/mL) (R&D Systems) was added (final concentration 10 ng/mL) and cells were incubated for 16 h. Luciferase activity was measured using Britelite kit (Perkin Elmer). To counter-screen for inhibitors of NF-κB induced by TLR4, CD40, NOD1, NOD2, cIAP2/MALT, or XIAP/TAB, the 293-NF-κB-luc cells cultured in 96 well plates as above were pretreated with compounds for 2 h and then transfected using Lipofectamine 2000 with various plasmids including pcDNA3 (“empty vector” control) or plasmids encoding CD4-TLR4, CD40, NOD1, NOD2, cIAP2/MALT, XIAP/TAB, using 0.2 μL of transfection reagent containing 100 ng DNA per well. Cells were cultured in medium containing CID-2858522 or other compounds and luciferase activity was measured 48 h later. […] Reactions were then initiated by addition of 50 μL 160 nM ATP (Sigma) in PBS and luciferase activity was measured 2 h later using a luminometer (LJL Biosystems, Sunnyvale, Calif.).

[3] = tested on: PDB-induced NF-κB reporter gene activity; assay: PDBu-induced NF-κB reporter gene activity in HEK293 cells; format: cell-based; conditions: Homo sapiens
Protocol: as §1
HTS. […] Plates were analyzed within 30 seconds with a Criterion Analyst™ using the luminescence method (0.1 second read/well).

[4] = tested on: PMA/Ionomycin-induced p65-RelA DNA-binding activity; assay: NF-κB p65 DNA-binding activity, PMA/Ionomycin-stimulated HEK293 cells; format: cell-based
Protocol: as §1
NF-κB DNA-binding activity assays. Nuclear extracts were prepared from 10 cm^2 plates of confluent cells using a kit (Active Motif, Carsbad, Calif.). The total protein content of nuclear fractions was quantified by the Bradford method, followed by storage at −80° C. NF-κB DNA-binding activity was measured in nuclear extracts (10 μg protein) using an immunoassay method (TransAM Kit [Active Motif]) employing 96 well plates coated with double-strand oligodeoxynucleotides containing NF-κB consensus binding site (5′-[…]-3′) and anti-p65 antibody, which was detected by secondary horseradish peroxidase (HRP)-conjugated antibody, using a calorimetric substrate with absorbance read at 450 nm within 5 minutes using a spectrophotometer, SpectraMax M5 (Molecular Devices, Sunnyvale, Calif.).

T1 sequence (P08659 whole entry, species assumed): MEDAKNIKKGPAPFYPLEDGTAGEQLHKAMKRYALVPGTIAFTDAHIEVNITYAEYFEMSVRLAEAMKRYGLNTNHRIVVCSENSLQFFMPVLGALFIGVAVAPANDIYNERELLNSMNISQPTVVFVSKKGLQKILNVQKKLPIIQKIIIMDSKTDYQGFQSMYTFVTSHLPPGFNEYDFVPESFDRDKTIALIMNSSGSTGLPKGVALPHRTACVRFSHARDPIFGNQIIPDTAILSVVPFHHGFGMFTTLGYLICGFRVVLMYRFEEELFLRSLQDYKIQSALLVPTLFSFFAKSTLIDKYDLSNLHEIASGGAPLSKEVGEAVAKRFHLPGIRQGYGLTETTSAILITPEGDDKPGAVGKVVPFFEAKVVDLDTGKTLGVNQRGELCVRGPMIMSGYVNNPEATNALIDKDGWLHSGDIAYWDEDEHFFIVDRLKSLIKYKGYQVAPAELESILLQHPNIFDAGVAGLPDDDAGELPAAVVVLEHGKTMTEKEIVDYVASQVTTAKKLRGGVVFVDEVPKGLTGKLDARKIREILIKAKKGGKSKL

For Cc1cc2nc(NCCCO)n(CC(=O)c3cc(C(C)(C)C)c(O)c(C(C)(C)C)c3)c2cc1C [Compound 1, 2-(2-(3-Hydroxypropylamino)-5,6-dimethyl-1H-benzo[d]imidazol-1-yl)-1-(3,5-di-tert-butyl-4-hydroxyphenyl)ethanone], the IC50 ([1]; Homo sapiens) was < 0.1 µM, the “concentration at which maximum suppression of IL-8 production is achieved” value ([1]; PMA/Ionomycin) was 1 µM and the “inhibition of luciferase activity” value [2] was “did not inhibit”. For the same compound, the IC50 ([3]; read-out: IC50, PDB-induced NF-κB reporter gene activity) was 0.07 µM, the IC50 ([3]; read-out: IC50, PDBu-induced NF-κB reporter gene assay (cellular potency)) was < 0.1 µM and the “concentration of maximal suppression of NF-κB DNA-binding activity” value ([4]; HEK293) was ~1 µM. For the same compound, the “lowest concentration with evident suppression of NF-κB DNA-binding activity” value ([4]; HEK293) was 0.1 µM and the “inhibition of p65-RelA DNA-binding activity” value ([4]; compared to PKC inhibitor) was “only partially inhibited”.
